# How the values were obtained:
# [1] = tested on: Mtb; settings: rising up to; ref Zhao et al., 2014; cited from earlier work
# [2] = tested on: PAS-resistant Mtb mutant folC (E153G); format: cell-based, Mycobacterium tuberculosis
# [3] = tested on: INCA-R Mtb strains; assay: microbe, parasite or virus in culture; format: cell-based, Mycobacterium tuberculosis
# [4] = tested on: PAS-resistant Mtb mutant folC (I43T); format: cell-based, Mycobacterium tuberculosis
# [5] = tested on: PAS-resistant Mtb mutant thyX (−16 C->T); format: cell-based, Mycobacterium tuberculosis
smiles,measurement,setting,value
"Nc1ccc(C(=O)O)c(O)c1 [PAS, para-aminosalicylic acid]",MIC values of PAS-resistant mutants,[1],up to 8 μg/mL
same,"MIC, folC (E153G)",[2],32 µg/mL
same,elevation of MIC in INCA-R strains (loss of potency),[3],32 fold
same,MIC,"[3]; Mycobacterium tuberculosis, read-out: MIC of INCA-R strains",16 µg/mL
same,"MIC, folC (I43T)",[4],32 µg/mL
same,"MIC, thyX (−16 C->T)",[5],16 µg/mL

# Source: article PMC6588435 (Cell chemical biology, 2019)
